From ChEMBL document CHEMBL1138030, “Inhibitors of HCV NS5B polymerase: synthesis and structure-activity relationships of N-1-benzyl and N-1-[3-methylbutyl]-4-hydroxy-1,8-naphthyridon-3-yl benzothiadiazine analogs containing substituents on the aromatic ring” (Bioorg Med Chem Lett, 2006)

Tests used:
[1] = target: T1, RNA-directed RNA polymerase (Hepacivirus hominis, UniProt O39930); experiment: Inhibition of HCV 1a NS5B RNA polymerase; design: species or system Hepatitis C virus subtype 1a
[2] = target: T1, RNA-directed RNA polymerase; experiment: Inhibition of HCV 1b NS5B RNA polymerase; design: species or system Hepatitis C virus subtype 1b
[3] = test system: Hepatitis C virus; experiment: Inhibition of HCV 1b replication in presence of 5% fetal calf serum; format: functional, organism-based, Hepatitis C virus subtype 1b
[4] = Protein binding in plasma; format: ADME, cell-free; conditions: read-out: PPB
[5] = test system: Hepatitis C virus; experiment: Inhibition of HCV 1b replication in presence of 40% human serum; format: functional, organism-based, Hepatitis C virus subtype 1b
[6] = Half life in rat at 5 mg/kg, po; format: ADME, organism-based; design: dose 5 mg/kg, route oral; conditions: in vivo
[7] = Cmax in rat at 5 mg/kg, po; format: ADME, organism-based; design: dose 5 mg/kg, route oral; conditions: in vivo
[8] = Bioavailability in rat at 5 mg/kg, po; format: ADME, organism-based; conditions: in vivo
[9] = Ratio of drug level in liver to plasma in rat after 8 hrs; format: ADME, organism-based
[10] = Clearance in rat at 5 mg/kg, po; format: ADME, organism-based; design: dose 5 mg/kg, route oral; conditions: in vivo

T1 sequence (O39930 whole entry): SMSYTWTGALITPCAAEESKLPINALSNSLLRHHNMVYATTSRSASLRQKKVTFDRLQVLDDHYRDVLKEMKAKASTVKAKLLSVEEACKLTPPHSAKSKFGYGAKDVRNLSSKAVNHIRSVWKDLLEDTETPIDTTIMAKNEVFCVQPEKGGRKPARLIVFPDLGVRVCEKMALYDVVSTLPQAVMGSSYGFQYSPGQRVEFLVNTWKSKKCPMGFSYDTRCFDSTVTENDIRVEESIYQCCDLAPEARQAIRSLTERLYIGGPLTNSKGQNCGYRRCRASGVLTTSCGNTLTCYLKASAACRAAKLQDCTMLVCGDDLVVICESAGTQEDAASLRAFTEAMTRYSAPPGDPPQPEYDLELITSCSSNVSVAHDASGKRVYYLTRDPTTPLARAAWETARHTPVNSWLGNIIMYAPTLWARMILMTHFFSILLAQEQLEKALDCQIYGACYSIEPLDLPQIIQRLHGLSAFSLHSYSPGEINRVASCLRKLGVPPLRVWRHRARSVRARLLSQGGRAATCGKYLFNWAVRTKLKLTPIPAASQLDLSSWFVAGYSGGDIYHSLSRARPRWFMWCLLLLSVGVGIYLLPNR

| Compound | IC50 [1] | IC50 [2] | further results |
| --- | --- | --- | --- |
| O=c1c(C2=NS(=O)(=O)c3ccccc3N2)c(O)c2cccnc2n1Cc1ccccc1 | 5800 nM | – | – |
| CC(C)CCn1c(=O)c(C2=NS(=O)(=O)c3ccccc3N2)c(O)c2cccnc21 | 810 nM | 41 nM | – |
| CC(C)CCn1c(=O)c(C2=NS(=O)(=O)c3cc(OCC(=O)N(C)C)ccc3N2)c(O)c2cccnc21 | 934 nM | 70 nM | – |
| CC(C)CCn1c(=O)c(C2=Nc3ccc(NCC#N)cc3S(=O)(=O)N2)c(O)c2cccnc21 | 120 nM | 24 nM | – |
| CC(C)CCn1c(=O)c(C2=Nc3ccc(OCc4ccccc4)cc3S(=O)(=O)N2)c(O)c2cccnc21 | – | 1490 nM | – |
| CC(C)CCn1c(=O)c(C2=NS(=O)(=O)c3cc(NS(C)(=O)=O)ccc3N2)c(O)c2cccnc21 | 2 nM | – | EC50 [3]: 3 nM; fraction unbound [4]: < 0.01; EC50 [5]: 1310 nM |
| CC(C)CCn1c(=O)c(C2=NS(=O)(=O)c3cc(NS(=O)(=O)C(C)C)ccc3N2)c(O)c2cccnc21 | 8 nM | 3 nM | EC50 [3]: 110 nM |
| CC(C)CCn1c(=O)c(C2=Nc3ccc(NS(=O)(=O)c4ccccc4)cc3S(=O)(=O)N2)c(O)c2cccnc21 | 41 nM | 7 nM | EC50 [3]: 1690 nM |
| COc1ccc2c(c1)S(=O)(=O)NC(c1c(O)c3cccnc3n(Cc3ccccc3)c1=O)=N2 | 8310 nM | 76 nM | – |
| O=c1c(C2=NS(=O)(=O)c3cccc(O)c3N2)c(O)c2cccnc2n1Cc1ccccc1 | 8370 nM | 54 nM | – |
| O=c1c(C2=NS(=O)(=O)c3ccc(O)cc3N2)c(O)c2cccnc2n1Cc1ccccc1 | – | 2510 nM | – |
| CC(C)CCn1c(=O)c(C2=Nc3ccc(OCC(N)=O)cc3S(=O)(=O)N2)c(O)c2cccnc21 | 46 nM | 16 nM | EC50 [3]: 78 nM; half-life [6]: 120 min; Cmax [7]: 180 nM; bioavailability [8]: 35%; fraction unbound [4]: < 0.01; Kp at 8 h [9]: 54; EC50 [5]: 2740 nM; CL/F [10]: 12.3 mL/min/kg |
| Cc1ccc2c(c1)S(=O)(=O)NC(c1c(O)c3cccnc3n(Cc3ccccc3)c1=O)=N2 | 25700 nM | 230 nM | – |
| CCCCS(=O)(=O)Nc1ccc2c(c1)S(=O)(=O)NC(c1c(O)c3cccnc3n(CCC(C)C)c1=O)=N2 | 22 nM | 5 nM | EC50 [3]: 1000 nM |
| CC(C)CCn1c(=O)c(C2=NS(=O)(=O)c3cc(OCC(=O)O)ccc3N2)c(O)c2cccnc21 | 367 nM | 57 nM | – |
| O=c1c(C2=NS(=O)(=O)c3cccc(Br)c3N2)c(O)c2cccnc2n1Cc1ccccc1 | 6200 nM | 1170 nM | – |

| Compound | IC50 [1] | IC50 [2] | further results |
| --- | --- | --- | --- |
| COc1ccc2c(c1)N=C(c1c(O)c3cccnc3n(Cc3ccccc3)c1=O)NS2(=O)=O | – | 3900 nM | – |
| CC(C)CCn1c(=O)c(C2=Nc3ccc(N)cc3S(=O)(=O)N2)c(O)c2cccnc21 | 310 nM | 23 nM | EC50 [3]: 480 nM |
| CCCOc1ccc2c(c1)S(=O)(=O)NC(c1c(O)c3cccnc3n(CCC(C)C)c1=O)=N2 | 1620 nM | 930 nM | – |
| CC(C)CCn1c(=O)c(C2=Nc3ccc(OCC(=O)OC(C)(C)C)cc3S(=O)(=O)N2)c(O)c2cccnc21 | 5000 nM | 850 nM | – |
| COc1cccc2c1NC(c1c(O)c3cccnc3n(Cc3ccccc3)c1=O)=NS2(=O)=O | 18000 nM | 2120 nM | – |
| COc1cccc2c1N=C(c1c(O)c3cccnc3n(CCC(C)C)c1=O)NS2(=O)=O | 17600 nM | 1170 nM | – |
| COc1ccc2c(c1)S(=O)(=O)N=C(c1c(O)c3cccnc3n(CCC(C)C)c1=O)N2 | 1130 nM | 65 nM | – |
| O=c1c(C2=Nc3ccc(Br)cc3S(=O)(=O)N2)c(O)c2cccnc2n1Cc1ccccc1 | 16800 nM | 756 nM | – |
| CC(C)CCn1c(=O)c(C2=NS(=O)(=O)c3cc(NC(=O)C(F)(F)F)ccc3N2)c(O)c2cccnc21 | 906 nM | 70 nM | – |
| CC(C)CCn1c(=O)c(C2=NS(=O)(=O)c3cc(O)ccc3N2)c(O)c2cccnc21 | 390 nM | 42 nM | – |
| CC(C)CCn1c(=O)c(C2=NS(=O)(=O)c3cc(OCC#N)ccc3N2)c(O)c2cccnc21 | 141 nM | 25 nM | – |
| Cc1cccc2c1N=C(c1c(O)c3cccnc3n(Cc3ccccc3)c1=O)NS2(=O)=O | 6700 nM | 96 nM | – |
| CC(C)CCn1c(=O)c(C2=Nc3ccc(NCC(N)=O)cc3S(=O)(=O)N2)c(O)c2cccnc21 | 470 nM | 34 nM | EC50 [3]: 450 nM |
| CNC(=O)COc1ccc2c(c1)S(=O)(=O)NC(c1c(O)c3cccnc3n(CCC(C)C)c1=O)=N2 | 180 nM | 80 nM | – |
| CC(C)CCn1c(=O)c(C2=Nc3ccc(OCCN)cc3S(=O)(=O)N2)c(O)c2cccnc21 | 637 nM | 51 nM | – |
